Patent US20240051956A1, “SOS1 INHIBITORS AND USES THEREOF” (QILU REGOR THERAPEUTICS INC., priority 2020, published 2024)

Legend:
SOS1 and KRAS G12D = SOS1 and KRAS G12D (Homo sapiens (Human), UniProt Q07889); assay: KRAS::SOS1 AlphaScreen Binding Assay; details: SOS1 (564-1049), KRAS G12D (1-169), GDP
Excerpt: a. KRAS::SOS1 AlphaScreen Binding Assay
Low IC50 values of given compounds are indicative of high potency of the SOS1 inhibitor compounds in this assay setting.
• GST-TEV-SOS1 (564-1049) and His-TEV-Avi-KRAS G12D (1-169) are purchased from Viva Biotech (Shanghai) Ltd. • GDP (Sigma, Cat. G7127) • AlphaLISA Glutathione Acceptor Beads (PerkinElmer, Cat. AL109C) • AlphaScreen Streptavidin Donor Beads (PerkinElmer, Cat. 6760002S) • Assay plates: ProxiPlate-384 Plus, White 384-shallow well Microplate (PerkinElmer, Cat. 6008280)
SOS1 inhibitor compounds are diluted to a final start concentration of […]. Serial dilutions of compounds are made using Tecan D300e Digital Dispenser in 9 concentrations with serial 1:3 dilutions. 100 nL of compound solution is transferred to the 384-well assay plate per well, covering a range between 1 μM and 0.15 nM minimum in duplicate. 10 nM (final assay concentration) KRAS G12D, 5 nM (final assay concentration) SOS1 and 10 μM (final assay concentration) GDP are mixed in assay buffer, and 5 μL of KRAS::SOS1 GDP mix is added into the assay plate to the 100 nL of compound solution (final dilution in the assay 1:100, final DMSO concentration 1%). After a 30 min incubation, AlphaLISA Glutathione Acceptor Beads and AlphaScreen Streptavidin Donor Beads are mixed in assay buffer at a concentration of 5 µg/mL (final assay concentration), and 5 μL of bead mix is added into the assay plate. Plates are kept at room temperature in a darkened incubator for 3 h. After a 3 h incubation, the signal is determined using Envision (PerkinElmer). The excitation wavelength is 680 nm, and emission 615 nm. IC50 values are calculated and analyzed using GraphPad Prism.

NCI-H358 = assay: Cell proliferation assay, 3D, CellTiter-Glo 3D; assay type: cell-based, human; details: Homo sapiens, 72 h; NCI-H358 (KRAS G12C), 3D ultra-low attachment, 3 days; read-out: anit-prolif. H358 IC50
Experimental: b. Cell Proliferation Assay
Low IC50 values are indicative of high potency of the compounds in this assay setting.
Cell proliferation assay is performed in three-dimensional (3D) ultra-low conditions with the human cell line NCI-H358, a human non-small cell lung cancer (NSCLC) cell line with a KRAS G12C mutation.
• 96-well Clear Round Bottom Ultra-Low Attachment Microplate (Corning, Cat. 7007) • 96-well Flat Clear Bottom White Polystyrene TC-treated Microplates (Corning, Cat. 3610) • RPMI-1640 Medium (Gibco, Cat. 22400105) • Fetal Bovine Serum (FBS) (Gibco, Cat. 10099141C) • 0.25% Trypsin-EDTA (Gibco, Cat. 25200056) • Penicillin-Streptomycin (Gibco, Cat. 15140122) • CellTiter-Glo 3D Cell Viability Assay (Promega, Cat. G9683)
NCI-H358 cells (ATCC, Cat. CRL-5807) are grown in cell culture flasks using RPMI medium supplemented with 10% FBS. Cells are incubated at 37° C. and 5% C02 in a humidified atmosphere, with sub-cultivation performed twice a week. Cells are trypsinized, counted and plated in 96-well ultra-low adhesion plates for 3D cell viability determination. The day after plating, serial dilutions of SOS1 inhibitor compounds are made using Tecan D300e Digital Dispenser to evaluate a concentration-dependent effect on cell viability. The concentration of the test compounds covers a range between 5 μM and 0.76 nM with serial 1:3 dilutions in 9 concentrations. 0.5 μL serial dilutions of the compounds are added in duplicates. 3 days later, the CellTiter-Glo 3D Cell Viability Assay is used to measure cell viability effects of SOS1 inhibitor compounds in 3D format. Luminescent intensity is determined using Envision (PerkinElmer). Data is analyzed and IC50 values are calculated using GraphPad Prism.

Sequence of SOS1 and KRAS G12D (Q07889 564-1049, stated change not applied): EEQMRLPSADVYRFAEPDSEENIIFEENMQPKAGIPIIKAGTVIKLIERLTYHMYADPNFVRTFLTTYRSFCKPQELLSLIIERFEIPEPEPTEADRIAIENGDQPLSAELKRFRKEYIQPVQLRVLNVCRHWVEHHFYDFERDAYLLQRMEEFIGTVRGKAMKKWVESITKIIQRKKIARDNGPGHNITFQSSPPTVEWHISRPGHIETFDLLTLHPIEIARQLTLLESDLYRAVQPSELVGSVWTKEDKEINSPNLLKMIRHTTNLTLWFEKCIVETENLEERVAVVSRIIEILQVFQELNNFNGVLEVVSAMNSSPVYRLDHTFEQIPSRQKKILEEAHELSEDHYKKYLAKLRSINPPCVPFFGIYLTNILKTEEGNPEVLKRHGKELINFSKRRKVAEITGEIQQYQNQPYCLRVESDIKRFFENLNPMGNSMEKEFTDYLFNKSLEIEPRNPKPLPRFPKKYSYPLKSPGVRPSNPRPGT

SMILES | IC50 (SOS1 and KRAS G12D) [nM] | IC50 (NCI-H358) [nM]
Cc1nc(N[C@H](C)c2cccc(C(F)F)c2F)c2cn(N3CCOCC3)c(=O)c(C)c2n1 [Example 44] | ≤ 15 | ≤ 100
Cc1nc(N[C@H](C)c2cccc(C(F)F)c2F)c2cn(N3CCOCC3)c(=O)c(-c3cc(F)cc(C#N)c3)c2n1 [Example 64] | 15 to 150 | 500 to 1000
Cc1nc(N[C@H](C)c2cccc(C(F)F)c2F)c2cn(N3CCOCC3)c(=O)c(C3=CCOC3)c2n1 [Example 54] | ≤ 15 | 100 to 500
Cc1nc(N[C@H](C)c2cccc(C(F)F)c2F)c2cn(N3CCOCC3)c(=O)c(-c3cnn(C)c3)c2n1 [Example 70] | ≤ 15 | 100 to 500
Cc1nc(N[C@H](C)c2cccc(C(F)F)c2F)c2cn(N3CCOCC3)c(=O)c(-c3cnc(C#N)nc3)c2n1 [Example 66] | ≤ 15 | ≤ 100
Cc1nc(N[C@H](C)c2cccc(C(F)F)c2F)c2cn(N3CCOCC3)c(=O)c(C#N)c2n1 [Example 41, 4-[[(1R)-1-[3-(difluoromethyl)-2-fluoro-phenyl]ethyl]amino]-2-methyl-6-morpholino-7-oxo-pyrido[4,3-d]pyrimidine-8-carbonitrile] | 15 to 150 | 100 to 500
Cc1nc(N[C@H](C)c2cccc(C(F)(F)CO)c2)c2cn(N3CCOCC3)c(=O)c(F)c2n1 [Example 32] | ≤ 15 | ≤ 100
Cc1nc(N[C@H](C)c2cccc(C(F)F)c2C)c2cn(N3CCOCC3)c(=O)cc2n1 [Example 21] | ≤ 15 | ≤ 100
Cc1nc(N[C@H](C)c2cccc(C(F)F)c2F)c2cn(N3CCCCC3)c(=O)cc2n1 [Example 2] | ≤ 15 | ≤ 100
Cc1nc(N[C@H](C)c2cccc(C(F)(F)F)c2F)c2cn(N3CCOCC3)c(=O)c(F)c2n1 [Example 31] | ≤ 15 | ≤ 100
Cc1ccc(-c2c(=O)n(N3CCOCC3)cc3c(N[C@H](C)c4cccc(C(F)F)c4F)nc(C)nc23)cn1 [Example 59] | ≤ 15 | ≤ 100
Cc1nc(N[C@H](C)c2cccc(C(F)F)c2F)c2cn(N3CCN(c4ccc(C#N)cn4)CC3)c(=O)cc2n1 [Example 15, 6-[4-[4-[[(1R)-1-[3-(difluoromethyl)-2-fluoro-phenyl]ethyl]amino]-2-methyl-7-oxo-pyrido[4,3-d]pyrimidin-6-yl]piperazin-1-yl]pyridine-3-carbonitrile] | 15 to 150 | ≤ 100
Cc1nc(N[C@@H](C)c2cccc(C(F)F)c2C)c2cn(N3CCOCC3)c(=O)cc2n1 [Example 22] | 150 to 1000 | > 1000
Cc1nc(N[C@H](C)c2cccc(C(F)F)c2F)c2cn(N3CCOCC3)c(=O)c(-c3ccccn3)c2n1 [Example 74, (R)-4-((1-(3-(difluoromethyl)-2-fluorophenyl)ethyl)amino)-2-methyl-6-morpholino-8-(pyridin-2-yl)pyrido[4,3-d]pyrimidin-7(6H)-one] | ≤ 15 | 100 to 500
Cc1nc(N[C@H](C)c2cccc(C(F)F)c2F)c2cn(N3CCOCC3)c(=O)c(-c3ccc(F)nc3)c2n1 [Example 50] | ≤ 15 | 100 to 500
Cc1nc(N[C@H](C)c2cccc(C(F)F)c2F)c2cn(N3CCN(C(=O)OC(C)(C)C)CC3)c(=O)cc2n1 [Example 4] | 15 to 150 | 100 to 500
Cc1nc(N[C@H](C)c2cccc(C(F)F)c2F)c2cn(N3CCC(O)CC3)c(=O)cc2n1 [Example 37] | ≤ 15 | 100 to 500

SMILES | IC50 (SOS1 and KRAS G12D) [nM] | IC50 (NCI-H358) [nM]
Cc1nc(N[C@H](C)c2cccc(C(F)F)c2F)c2cn(N3CCN(C(C)C)CC3)c(=O)cc2n1 [Example 12, 4-[[(1R)-1-[3-(difluoromethyl)-2-fluoro-phenyl]ethyl]amino]-6-(4-isopropylpiperazin-1-yl)-2-methyl-pyrido[4,3-d]pyrimidin-7-one] | ≤ 15 | 100 to 500
Cc1nc(N[C@H](C)c2cccc(C(F)F)c2F)c2cn(N3CCOCC3)c(=O)c(-c3cncnc3)c2n1 [Example 52] | ≤ 15 | ≤ 100
Cc1nc(N[C@H](C)c2cccc(C(F)F)c2F)c2cn(N3CCOCC3)c(=O)c(-c3ccc(C#N)cc3)c2n1 [Example 57] | ≤ 15 | ≤ 100
CCC(Nc1nc(C)nc2cc(=O)n(N3CCOCC3)cc12)c1cccc(C(F)(F)F)c1 (centres unmarked) [Example 24] | 15 to 150 | 100 to 500
Cc1nc(N[C@H](C)c2cccc(C(F)F)c2F)c2cn(N3C[C@@H](C)O[C@@H](C)C3)c(=O)cc2n1 [Example 5] | ≤ 15 | 100 to 500
Cc1nc(NC(C)c2cccc(C(F)F)c2)c2cn(N3CCOCC3)c(=O)cc2n1 (centres unmarked) [Example 25] | 15 to 150 | 100 to 500
Cc1nc(N[C@H](C)c2cccc(C(F)F)c2F)c2cn(N3CCOC3=O)c(=O)cc2n1 [Example 39] | ≤ 15 | 100 to 500
Cc1nc(N[C@H](C)c2cccc(C(F)F)c2F)c2cn(N3CCOCC3)c(=O)c(-c3ccccc3)c2n1 [Example 47] | ≤ 15 | 100 to 500
Cc1nc(N[C@H](C)c2cccc(C(F)F)c2F)c2cn(N3CCOCC3)c(=O)c(-c3cnc(C#N)c(F)c3)c2n1 [Example 67] | 15 to 150 | ≤ 100
Cc1nc(N[C@H](C)c2cccc(C(F)F)c2F)c2cn(N3CCCC3=O)c(=O)cc2n1 [Example 38] | ≤ 15 | 500 to 1000
Cc1nc(N[C@H](C)c2cccc(C(F)F)c2F)c2cn(N3CCOCC3)c(=O)c(-c3ccc(F)c(C#N)c3)c2n1 [Example 63] | 15 to 150 | 500 to 1000
Cc1nc(N[C@H](C)c2cccc(C(F)(F)F)c2C)c2cn(N3CCOCC3)c(=O)c(-c3ccc(C#N)nc3)c2n1 [Example 76] | 15 to 150 | 100 to 500
Cc1nc(N[C@H](C)c2cccc(C(F)F)c2F)c2cn(N3CCOCC3)c(=O)c(-c3ccc4nccn4c3)c2n1 [Example 73] | ≤ 15 | ≤ 100
Cc1nc(N[C@H](C)c2cccc(C(F)F)c2F)c2cn(N3CC4CC3CO4)c(=O)cc2n1 (some centres unmarked) [Example 8] | ≤ 15 | 100 to 500
Cc1nc(N[C@H](C)c2cccc(C(F)F)c2F)c2cn(N3CCNCC3)c(=O)cc2n1 [Example 10, 4-[[(1R)-1-[3-(difluoromethyl)-2-fluoro-phenyl]ethyl]amino]-2-methyl-6-piperazin-1-yl-pyrido[4,3-d]pyrimidin-7-one] | ≤ 15 | > 1000
C=C(C)c1c(=O)n(N2CCOCC2)cc2c(N[C@H](C)c3cccc(C(F)F)c3F)nc(C)nc12 [Example 56] | ≤ 15 | 100 to 500
Cc1nc(N[C@H](C)c2cccc(C(F)F)c2F)c2cn(N3CCOCC3)c(=O)c(-c3ccc(N)nc3)c2n1 [Example 48] | ≤ 15 | 100 to 500
